According to paper PMC8465290, “Zoledronic Acid as a Novel Dual Blocker of KIR6.1/2-SUR2 Subunits of ATP-Sensitive K^+ Channels: Role in the Adverse Drug Reactions” (Pharmaceutics, 2021):

Assay: Pharmacovigilance analysis of A.D.R. in EudraVigilance database
Parameters: species or system human
Settings: for rhabdomyolysis, % of A.D.R.: within musculoskeletal and connective tissue disorders
Text: All coding preferred terms per System Organ Class (S.O.C.) were screened in the EudraVigilance database (http://www.adrreports.eu/ accessed on 1 May 2021), and those potentially associated with KATP channel blocking actions were reported and subject to analysis.
The data were extracted from EudraVigilance, collected, and analyzed on Microsoft 365 Excel software package (Microsoft 10.00). The not specified category was not included in the calculation. The duplication of a specific report per S.O.C. was evaluated manually and excluded from the analysis.
The Proportional Reporting Ratio (P.R.R.) was calculated using the following equation: a/(a+c)/b/(b + d) where a is the reaction of interest to a given drug of interest, b is the reaction of interest for all other drugs in the class, c are all other reactions to a given drug of interest, and d are all other reactions to all other drugs in the class. Signal definition: P.R.R. ≥ 2, a minimum of three ratios/cases for the reaction of interest, X^2 ≥ 4. No signal is identified if P.R.R. is = 1 [47].

[1] = within the KATP channel blockers

Row | Compound | hypoglycemia, % of the A.D.R. per S.O.C. | rhabdomyolysis, % of A.D.R. | Proportional Reporting Ratio (P.R.R.) arrhythmias [1] | Proportional Reporting Ratio (P.R.R.) hypoglycemia [1] | Proportional Reporting Ratio (P.R.R.) palpitations [1] | Proportional Reporting Ratio (P.R.R.) rhabdomyolysis [1] | Proportional Reporting Ratio (P.R.R.) muscular weakness [1]
1 | CC(C)[C@H]1CC[C@H](C(=O)N[C@H](Cc2ccccc2)C(=O)O)CC1 [nateglinide] | 77.9% | 18.4% | ≥ 2 | ≥ 2 | ≥ 2 | ≥ 2 | 
2 | Cc1ccc(S(=O)(=O)NC(=O)NN2CC3CCCC3C2)cc1 (stereo not shown) [gliclazide] |  |  |  |  |  |  | ≥ 2
3 | CCOc1cc(CC(=O)N[C@@H](CC(C)C)c2ccccc2N2CCCCC2)ccc1C(=O)O [repaglinide] | 84.6% | 17.8% |  | ≥ 2 |  |  | 
